Data on one compound can be found in patent US20180353567A1, “TREATMENT OF CARDIOVASCULAR DISEASE WITH COMPOUNDS THAT PROMOTE SELECTIVE INTERACTION OF THE B2-ADRENERGIC RECEPTOR WITH B-ARRESTIN” (THOMAS JEFFERSON UNIVERSITY, priority 2015, published 2018).

In test [1] the target is T1, FLAG-β2AR (Homo sapiens, UniProt P07550).
T1 construct: expressed in transfected cells
As to the kind of experiment: β2AR phosphorylation (pSer355/pSer356) with phosphospecific antibody. The conditions noted are these: time-course; 1 μM isoproterenol, 10 μM carvedilol or 10 μM ICL1-9. The format is cell-based. How it is done:
HEK293 cells stably overexpressing FLAG-β2AR were grown in 10 cm dishes at 37° C. in DMEM supplemented with 10% FBS and 50 μg/ml G418 sulfate (Cellgro). […] Briefly, cell lysates were immunoprecipitated using mouse monoclonal M2 anti-FLAG (Sigma-Aldrich) and Protein G agarose PLUS beads (Santa Cruz Biotechnologies). The beads were incubated overnight at 4° C., pelleted, washed and then suspended in Laemeli buffer. […] Chemiluminescence was measured using Pico chemiluminescent substrate (Thermo Scientific).

For test [2], the target named is T2, β2AR (Homo sapiens, UniProt P07550). As to the kind of experiment: β-arrestin2 recruitment to the β2AR by BRET in HEK293 cells. On the set-up: expressed in transfected cells; host or cells: HEK293. The format is cell-based. On the technique in general: Arrestin recruitment assays detect the binding of arrestin to an activated receptor.
Test [3] relates to C57Bl/6 mice. The test is described as follows: Cardiac function by echocardiography following ischemia-reperfusion (I/R) injury in mice. The format is in vivo. The conditions noted are these: echocardiography after I/R; compared to scrambled pepducin. How it is done: Cardiac function was assessed via transthoracic two-dimensional echocardiography performed at baseline and at 1, 3 and 7 days post MI using a […] probe on mice anesthetized with isoflurane (1.5%). M-mode echocardiography was performed in the parasternal short-axis view to assess several cardiac parameters including left ventricular (LV) fractional shortening, calculated using the equation […].

In test [4] the target is T3, CXCR4 (Homo sapiens, UniProt P61073).
T3 construct: expressed in transfected cells; host or cells: HEK293 stably overexpressing FLAG-β2AR, transient transfection
The test is described as follows: β-arrestin2 recruitment to CXCR4 by BRET. The format is cell-based. The conditions noted are these: 50 nM SDF-1α, 1 μM isoproterenol or 10 μM ICL1-9. The protocol:
β-arrestin2 recruitment to CXCR4 was measured similarly in HEK293 cells stably overexpressing a FLAG-β2AR and transiently transfected with β-arrestin2-GFP10 and CXCR4-RLucII (15). BRET was monitored post-stimulation using 50 nM SDF-1α, 1 μM isoproterenol or 10 μM ICL1-9.

Test [5] concerns phospholamban (PLB). As to the kind of experiment: Phospholamban phosphorylation in isolated cardiomyocytes. The format is cell-based, murine. The conditions noted are these: 0.1 μM isoproterenol or 10 μM ICL1-9, 5 min. The source says: […]. Lysates were run on 8% SDS-PAGE gels and transferred to Immobilon-PSQ polyvinylidene fluoride […] pore size membranes (Millipore, Billerica, Mass.). PLB phosphorylation (cardiomyocyte lysates) was detected using anti-Phospho-Ser^16 PLB rabbit pAb (1:5000, Badrilla) and normalized to total PLB as detected with anti-PLB mouse mAb (1:1000, Badrilla). β-arrestin1 and 2 expression levels (left ventricular lysates) were detected using anti-β-arrestin1/2 rabbit mAb (1:1000, Cell Signaling Technology) and normalized to GAPDH levels as detected with anti-GAPDH rabbit mAb (1:1000, Cell Signaling Technology). Membranes were subsequently incubated with appropriate anti-rabbit or anti-mouse IRDye (680 or 800)-labeled antibodies and detected using the LiCOR Biosciences Odyssey system.

For test [6], the system named is primary murine cardiomyocytes. As to the kind of experiment: Ca2+ transient measurement in cardiomyocytes. The format is cell-based. The protocol: (§1) Adult murine cardiac myocytes were isolated from the septum and LV free wall of 8-12 week old mice as previously described (47). Briefly, mice were heparinized (1,500 U/kg ip) and anesthetized (pentobarbital sodium, 50 mg/kg ip). Excised hearts were mounted on a steel cannula and retrograde perfused (100 cm H2O, 37° C.) with Ca2+-free bicarbonate buffer followed by enzymatic digestion (collagenases B and D, protease XIV). […] The final Ca2+ buffer was then aspirated and replaced with MEM (Sigma-Aldrich) containing 1.2 mM Ca2+, 2.5% FBS, and 1% penicillin/streptomycin. The pH was adjusted to 7.0 in 4% CO2 by the addition of NaHCO3 (0.57 g/l). After 1 h (4% CO2, 37° C.), media was replaced with FBS-free MEM containing 0.1 mg/ml BSA and antibiotics. Myocytes adherent to coverslips were bathed in 0.7 ml of air- and temperature-equilibrated (37° C.) HEPES-buffered (20 mM, pH 7.4) medium 199 containing 1.8 mM [Ca2+] and used within 2 to 8 h of isolation. For Ca^2+ transient measurements, cardiomyocytes were exposed to […] for 15 min at 37° C.

Test [7] has as its system EGFR. As to the kind of experiment: EGFR transactivation (phosphorylation at EGFR Tyr845) in HEK293 FLAG-β2AR cells. The format is cell-based. The conditions noted are these: HEK293 stably overexpressing FLAG-β2AR.
In test [8] the test system is adult murine cardiomyocytes. The test is described as follows: Adult murine cardiomyocyte contractility. The format is cell-based. The protocol:
as §1

For test [9], the system named is C57Bl/6 mice. The conditions noted are these: 24 hr reperfusion.
Description: After 24 hr of reperfusion, the hearts were perfused with Evans Blue dye and the mice were sacrificed, hearts frozen, stained with TTC, photographed and risk and infarct areas calculated. Treated mice were also analyzed after 24 hr reperfusion for cell death staining (TUNEL, red), nuclear staining (DAPI, blue) and cardiomyocyte staining (α-sarcomeric actin, green) of cardiac slices.
Test [10] deals with T1, FLAG-β2AR. The test is described as follows: cAMP measurement in HEK293 cells stably overexpressing FLAG-β2AR. The format is cell-based. The protocol:
HEK293 cells stably overexpressing a FLAG-β2AR were cultured to confluency in 24 well plates at 37° C. in Dulbecco's Modified Eagle Medium (DMEM, Cellgro) supplemented with 10% fetal bovine serum (FBS) and 50 μg/ml G418 sulfate (Cellgro). […] Stimulation was ended by the removal of media on ice and cells were lysed by adding 80 μl 0.1 M HCl followed by 20 min incubation at room temperature on an orbital shaker. Lysates were cleared by centrifugation at 1,000×g for 15 min. cAMP levels were measured using the Cayman Chemical Cyclic AMP EIA kit according to the manufacturer's instructions.

Test [11] relates to ERK1/2. As to the kind of experiment: ERK phosphorylation by western blot in HEK293 FLAG-β2AR cells. The format is cell-based. The conditions noted are these: time-course. How it is done:
HEK293 cells stably overexpressing FLAG-β2AR were grown to ˜90% confluence in 6 well plates and serum starved for 16 h. […] On ice, assay media was removed and 100 μl of lysis buffer was added. Cell lysates were scraped and briefly sonicated. 20 μl of 6× Laemmli buffer was added and the lysate was boiled for 10 min. ERK phosphorylation was detected by western blotting using a polyclonal primary antibody against phospho-ERK1/2 (1:500 in TBST with 5% BSA, Cell Signaling Technologies) and total ERK2 levels were detected using a monoclonal anti-ERK2 antibody (1:1000 in TBST with 5% BSA, Santa Cruz Biotechnologies). ERK phosphorylation levels (normalized to ERK2) were quantitated by detection of anti-mouse IRDye 800 and anti-rabbit IRDye 680 antibodies using a LiCOR Odyssey system.

Test [12] deals with T4, β1AR (Homo sapiens, UniProt P08588).
T4 construct: expressed in transfected cells; host or cells: human osteosarcoma U2S cells, adenoviral infection
As to the kind of experiment: β1AR/β-arrestin2 interaction by FRET in U2S cells. The format is cell-based. The conditions noted are these: isoproterenol 1 μM, ICL1-9 10 μM.

In test [13] the target is T5, FLAG-β1AR (Homo sapiens, UniProt P08588).
T5 construct: expressed in transfected cells
The test is described as follows: β1AR internalization by cell surface ELISA. The format is cell-based. The conditions noted are these: 1 h time-course. The protocol:
(§2) Receptor internalization was measured by cell surface enzyme-linked immunosorbent assay as previously described (5, 45).

Test [14] has as its target T1, FLAG-β2AR. The test is described as follows: β2AR internalization by cell surface ELISA. The format is cell-based. How it is done: as §2
In general terms: An ELISA detects its analyte on a solid surface through an enzyme-linked reagent.

Test [15] deals with T2, β2AR. The test is described as follows: [125I]-iodocyanopindolol competitive radioligand binding. The conditions noted are these: 1 nM radioligand.
Test [16] has as its system mBB-β2AR. As to the kind of experiment: Monobromobimane-labeled purified β2AR fluorescence (TM6 movement). The format is biochemical. The conditions noted are these: loss of peak fluorescence and increase in λmax.
Excerpt: Full-length PN1-β2AR was purified from Sf9 insect cells and labeled with monobromobimane as previously described (5, 46). […] Background fluorescence contributed by the assay buffer and ligand were subtracted from the experimental spectra.
The mark [17] stands for this setting: intramyocardial injection, 60 min ligation, vs scrambled pepducin.

Entries after “also recorded” stand apart in the source; their conditions may differ. Where a SMILES comes first, the peptide text is derived from it.

T1 sequence (P07550 whole entry): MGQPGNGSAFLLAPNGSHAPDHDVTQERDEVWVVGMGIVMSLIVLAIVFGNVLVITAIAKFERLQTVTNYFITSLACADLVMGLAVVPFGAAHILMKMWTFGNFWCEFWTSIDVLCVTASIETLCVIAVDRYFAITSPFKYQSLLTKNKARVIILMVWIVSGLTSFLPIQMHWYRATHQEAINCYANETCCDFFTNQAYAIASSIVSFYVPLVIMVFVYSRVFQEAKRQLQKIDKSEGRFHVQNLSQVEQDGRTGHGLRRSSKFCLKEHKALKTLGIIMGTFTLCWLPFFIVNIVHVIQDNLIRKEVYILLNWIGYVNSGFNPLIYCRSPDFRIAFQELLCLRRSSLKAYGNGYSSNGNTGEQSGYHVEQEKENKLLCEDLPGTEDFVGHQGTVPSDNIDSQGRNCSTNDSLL
T2 sequence (P07550 whole entry, the tested form may be a part): as the sequence (P07550 whole entry) above
T3 sequence (P61073 whole entry, species assumed): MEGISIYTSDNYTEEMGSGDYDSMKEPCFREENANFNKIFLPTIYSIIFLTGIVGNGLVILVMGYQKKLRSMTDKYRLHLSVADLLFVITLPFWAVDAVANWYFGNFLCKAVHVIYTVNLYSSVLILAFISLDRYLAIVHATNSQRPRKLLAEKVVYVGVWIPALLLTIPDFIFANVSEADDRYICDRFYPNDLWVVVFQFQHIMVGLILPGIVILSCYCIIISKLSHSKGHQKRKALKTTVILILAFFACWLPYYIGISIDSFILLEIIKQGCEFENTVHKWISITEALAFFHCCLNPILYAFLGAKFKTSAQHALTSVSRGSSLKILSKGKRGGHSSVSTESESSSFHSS
T5 sequence (P08588 whole entry): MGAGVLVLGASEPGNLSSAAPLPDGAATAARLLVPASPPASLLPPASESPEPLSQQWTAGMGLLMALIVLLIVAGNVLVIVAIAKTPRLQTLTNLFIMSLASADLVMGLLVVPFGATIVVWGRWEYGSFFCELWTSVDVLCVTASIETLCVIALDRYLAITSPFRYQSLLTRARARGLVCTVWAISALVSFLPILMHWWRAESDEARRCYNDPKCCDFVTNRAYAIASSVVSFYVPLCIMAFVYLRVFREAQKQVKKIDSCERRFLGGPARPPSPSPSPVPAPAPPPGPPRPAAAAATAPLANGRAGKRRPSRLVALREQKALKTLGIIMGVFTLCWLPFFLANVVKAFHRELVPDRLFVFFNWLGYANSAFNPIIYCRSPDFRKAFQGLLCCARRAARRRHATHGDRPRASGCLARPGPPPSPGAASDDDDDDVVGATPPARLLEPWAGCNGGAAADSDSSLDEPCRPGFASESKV
T4 sequence (P08588 whole entry): as above

As to `CCCCCCCCCCCCCCCC(=O)N[C@H](C(=O)N[C@@H](C)C(=O)N[C@H](C(=O)N[C@@H](C)C(=O)N[C@@H](CCCCN)C(=O)N[C@@H](Cc1ccccc1)C(=O)N[C@@H](CCC(=O)O)C(=O)N[C@@H](CCCNC(=N)N)C(=O)N[C@@H](CC(C)C)C(=O)N[C@@H](CCC(N)=O)C(=O)N[C@H](C(=O)N[C@H](C(=O)N[C@H](C(=O)N[C@@H](CC(N)=O)C(=O)N[C@@H](Cc1ccc(O)cc1)C(=O)N[C@@H](Cc1ccccc1)C(=O)N[C@H](C(=O)N[C@H](C(N)=O)[C@@H](C)O)[C@@H](C)CC)[C@@H](C)O)C(C)C)[C@@H](C)O)[C@@H](C)CC)[C@@H](C)O` [ICL1-9] (HELM PEPTIDE1{[CCCCCCCCCCCCCCCC(=O)[*:2]].T.A.I.A.K.F.E.R.L.Q.T.V.T.N.Y.F.I.T.[am]}$$$$V2.0), the “β2AR phosphorylation at Ser355/Ser356” value in test [1] was “stimulated similar receptor phosphorylation albeit with slower kinetics and extent of phosphorylation; also recorded: promoted robust receptor phosphorylation”. In addition, the “β-arrestin coupling to the β2AR after pretreatment with ICI-118,551” value in test [2] is listed as “significantly inhibited by pretreatment with ICI-118,551”. In addition, the “cardiac contractility (% fractional shortening)” value in test [3] is reported as “significantly blunted FR-induced loss of cardiac contractility”. Also, in test [4], the “β-arrestin2 recruitment to CXCR4” value was “had no effect”. The PLB phosphorylation result in [5] is listed as “unable to induce significant PLB phosphorylation”. The calcium mobilization entry in test [6] is “did not promote significant calcium mobilization”. Also, the “EGFR transactivation (phosphorylation at EGFR Tyr845)” value in test [7] was “promoted EGFR transactivation”. Moreover, the “cardiomyocyte contraction, of isoproterenol-promoted” value in test [8] (wild-type adult murine cardiomyocytes, 10 μM ICL1-9, 0.5 μM isoproterenol, 2 Hz) is on record as around 53%. Further, the “cardiomyocyte contraction, β2AR-knockout” value in [8] (β2AR-knockout adult murine cardiomyocytes, 10 μM) is listed as “significantly impaired responsiveness; also recorded: unable to promote significant contraction”. Besides, the “cardiomyocyte contraction, β-arrestin1-knockout” value in [8] (β-arrestin1-knockout adult murine cardiomyocytes, 10 μM) is reported as “significantly impaired responsiveness; also recorded: unable to promote significant contraction”. The “cardiomyocyte contraction, β-arrestin2-knockout” value in test [8] (β-arrestin2-knockout adult murine cardiomyocytes, 10 μM) was “significantly impaired responsiveness”. In addition, in test [9] (versus scrambled pepducin), the “cell death within the infarct zone (TUNEL)” value is “significantly reduced”. In addition, in test [9] (between groups), the “area-at-risk (AAR)” value is listed as “not significantly different” and the area-not-at-risk entry is “not significantly different”. In test [9] (setting [17]), the “infarct area as a percentage of AAR” value is reported as “significantly reduced” and the “infarct area as a percentage of total left ventricular (LV) area” value was “significantly reduced”. Also, the “cAMP production compared to vehicle control” value in test [10] is given as “does not promote any cAMP production; also recorded: did not promote any cAMP production”. Moreover, the ERK1/2 phosphorylation entry in test [11] is “faster kinetics despite similar efficacy when compared to carvedilol”. Besides, the “β-arrestin recruitment to the β1AR (FRET)” value in [12] is listed as “no change in FRET activity”. Moreover, the FLAG-β1AR internalization result in test [13] is “did not induce significant receptor internalization”. Also, in [14], the FLAG-β2AR internalization result is listed as “stimulate comparable levels of FLAG-β2AR internalization; also recorded: able to promote β2AR internalization”. Moreover, the “effect on [125I]-iodocyanopindolol binding to β2ARs” value in test [15] was “did not affect [^125I]-iodocyanopindolol binding”. Further, the “mbb-β2AR conformational change (TM6 movement)” value in test [16] is “able to promote mbb-β2AR conformational changes that stabilized TM6 movement”.
